{"source": "patent US12408666B2", "about": "“Pyridyloxy carboxylate derivative, preparation method therefor, herbicidal composition and use thereof” (priority 2018, dated 2025)", "key": {"Echinochloa crusgalli": {"system": "Echinochloa crusgalli", "test": "Post-emergence test, ALS-resistant weed (Table 4)", "assay_type": "in vivo", "details": "Echinochloa crus-galli, 504 h, 3 weeks, resistant to ALS inhibitor herbicides, read-out: Echinochloa crusgalli, activity level (growth inhibition rate)", "protocol": "(§1) Post-emergence test experiment: Monocotyledonous and dicotyledonous weed seeds and main crop seeds (i. e. wheat, corn, rice, soybean, cotton, oilseed, millet and sorghum.) were put into a plastic pot loaded with soil. Then covered with 0.5-2 cm soil, the seeds were allowed to grow in good greenhouse environment. The test plants were treated at 2-3 leaf stage 2 weeks after sowing. The test compounds of the invention were dissolved with acetone respectively, then added with tween-80, and using 1.5 liters per hectare of an emulsible concentrate of methyl oleate as a synergist, and diluted by certain amount of water to certain concentration. The solution was sprayed to the plants with a sprayer. Then the plants were cultured for 3 weeks in the greenhouse, and the experiment result of weed controlling effect after 3 weeks was listed in tables 3-4.\n(§2) Note: the application dose was active ingredient 600 g/ha, plus water 450 kg/ha. Echinochloa crusgalli and Cyperus iria were collected from Hunan province of China, and were resistant to ALS inhibitor herbicides."}, "Cyperus iria": {"system": "Cyperus iria", "test": "Post-emergence test, ALS-resistant weed (Table 4)", "assay_type": "in vivo", "details": "504 h, 3 weeks, resistant to ALS inhibitor herbicides, read-out: Cyperus iria, activity level (growth inhibition rate)", "protocol": "as §1, §2"}, "Japonica rice": {"system": "Japonica rice", "test": "Post-emergence test, crop safety (Table 4)", "assay_type": "in vivo", "details": "3 weeks after treatment", "protocol": "as §1\n(§3) […] Echinochloa crusgalli and Cyperus iria were collected from Hunan province of China, and were resistant to ALS inhibitor herbicides."}, "Indica rice": {"system": "Indica rice", "test": "Post-emergence test, crop safety (Table 4)", "assay_type": "in vivo", "details": "3 weeks after treatment", "protocol": "as §1, §3"}, "rice": {"system": "rice", "details": "known compound; cited from earlier work"}, "[1]": {"system": "Echinochloa crusgalli, Digitaria sanguinalis, Leptochloa chinensis and Setaria viridis", "details": "commercial product; cited from earlier work"}, "Soybean": {"system": "Soybean", "test": "Spray drift test by unmanned gyroplane, neighbouring soybean field", "assay_type": "in vivo", "details": "600 g/ha applied by unmanned gyroplane, soybean field at 10 meters, gentle breeze", "protocol": "Broadleaf crops are very sensitive to hormonal herbicides, therefore crop injuries are more likely to occur in case of spray drifting. Tests were conducted in gentle breeze for the compounds of the present invention. The formulation of the compounds of the present invention was applied by DJI unmanned gyroplane with application height of 1 m and water volume of 20 kg/ha. The use rate was 600 g/ha. The active ingredient was dissolved by acetone and diluted to aqueous solution of Tween 80. There's a soybean field at 10 meters from the application area and the height of soybean plants were about 15 cm at the application time."}, "Monochoria vaginalis": {"system": "Monochoria vaginalis", "test": "Weed control effect evaluation in rice field", "assay_type": "in vivo", "details": "paddy pot, 50 g/ha, 14 days after treatment, resistant to pyrazosulfuron-ethyl and penoxsulam", "protocol": "Rice field soil was loaded into a 1/1,000,000 ha pot. The seeds of Monochoria vaginalis were sowed and gently covered with soil, then left to stand still in greenhouse in the state of 0.5-1 cm of water storage. It was kept at 3-4 cm of water storage thereafter. The weeds were treated by dripping the WP or SC water diluents prepared according to the common preparation method of the compounds of the present invention with pipette homogeneously to achieve specified effective amount when Monochoria vaginalis reached 0.5 leaf stage.\nThe fertility condition of Monochoria vaginalis 14 days and rice 21 days after the treatment of the compound of the invention with the naked eye.\nNote: The seeds of Monochoria vaginalis were collected from Heilongjing Province of China."}}, "data": [{"smiles": "COc1cc(OC)nc(Oc2cccc(Oc3nc(OC)cc(OC)n3)c2C(=O)O)n1", "note": "[Bispyribac-sodium]", "values": [{"measurement": "inhibition at 100 g/ha", "setting": "Echinochloa crusgalli; 100 g/ha", "result": "5 to 20", "unit": "%"}, {"measurement": "inhibition at 100 g/ha", "setting": "Cyperus iria; 100 g/ha", "result": "20 to 40", "unit": "%"}, {"measurement": "Japonica rice, activity level (growth inhibition rate)", "setting": "Japonica rice; 100 g/ha", "result": "4 (Level 4: the growth inhibition rate is equal to or greater than 60% and less than 85%)"}, {"measurement": "Indica rice, activity level (growth inhibition rate)", "setting": "Indica rice; 100 g/ha", "result": "2 (Level 2: the growth inhibition rate is equal to or greater than 20% and less than 40%)"}]}, {"smiles": "CC(Oc1nc(F)c(Cl)c(N)c1Cl)C(=O)O", "note": "(centres unmarked) [Control compound A]", "values": [{"measurement": "inhibition at 300 g/ha", "setting": "Echinochloa crusgalli; 300 g/ha", "result": "60 to 85", "unit": "%"}, {"measurement": "inhibition at 600 g/ha", "setting": "Echinochloa crusgalli", "result": "> 85", "unit": "%"}, {"measurement": "inhibition at 300 g/ha", "setting": "Cyperus iria; 300 g/ha", "result": "60 to 85", "unit": "%"}, {"measurement": "inhibition at 600 g/ha", "setting": "Cyperus iria", "result": "> 85", "unit": "%"}, {"measurement": "Japonica rice, activity level (growth inhibition rate)", "setting": "Japonica rice; 300 g/ha", "result": "2 (Level 2: the growth inhibition rate is equal to or greater than 20% and less than 40%)"}, {"measurement": "Japonica rice, activity level (growth inhibition rate)", "setting": "Japonica rice; 600 g/ha", "result": "3 (Level 3: the growth inhibition rate is equal to or greater than 40% and less than 60%)"}, {"measurement": "Indica rice, activity level (growth inhibition rate)", "setting": "Indica rice; 300 g/ha", "result": "3 (Level 3: the growth inhibition rate is equal to or greater than 40% and less than 60%)"}, {"measurement": "Indica rice, activity level (growth inhibition rate)", "setting": "Indica rice; 600 g/ha", "result": "3 (Level 3: the growth inhibition rate is equal to or greater than 40% and less than 60%)"}, {"measurement": "Safety and selectivity", "setting": "rice", "result": "poor safety and low selectivity"}]}, {"smiles": "CCCCOCC(C)OC(=O)COc1nc(F)c(Cl)c(N)c1Cl", "note": "(centres unmarked) [Control compound B]", "values": [{"measurement": "inhibition at 600 g/ha", "setting": "Echinochloa crusgalli", "result": "20 to 40", "unit": "%"}, {"measurement": "inhibition at 600 g/ha", "setting": "Cyperus iria", "result": "40 to 60", "unit": "%"}, {"measurement": "Japonica rice, activity level (growth inhibition rate)", "setting": "Japonica rice; 600 g/ha", "result": "2 (Level 2: the growth inhibition rate is equal to or greater than 20% and less than 40%)"}, {"measurement": "Indica rice, activity level (growth inhibition rate)", "setting": "Indica rice; 600 g/ha", "result": "2 (Level 2: the growth inhibition rate is equal to or greater than 20% and less than 40%)"}, {"measurement": "Efficacy on key grasses in rice", "setting": "[1]", "result": "very poor"}]}, {"smiles": "CCOC(=O)C(C)Oc1nc(F)c(Cl)c(N)c1Cl", "note": "(centres unmarked) [Control compound C]", "values": [{"measurement": "Soybean, injury level from spray drift", "setting": "Soybean", "result": "3 (Level 3: the growth inhibition rate is equal to or greater than 40% and less than 60%)"}]}, {"smiles": "COc1cnc(OC)n2nc(NS(=O)(=O)c3c(OCC(F)F)cccc3C(F)(F)F)nc12", "note": "[Penoxsulam]", "values": [{"measurement": "Monochoria Vaginalis, activity level", "setting": "Monochoria vaginalis", "result": "1 (Level 1: the growth inhibition rate is equal to or greater than 5% and less than 20%)"}]}]}
